Results: DBAASP
Converted amounts (≈) assume the structure as drawn.

What was measured:
Assay in all cases: ≥ marks a high value that may be exact or a test limit, other limits are often not marked, values filed in µg/mL are converted to µM
[1] = tested on: Pseudomonas aeruginosa ATCC 27853
[2] = tested on: Staphylococcus aureus ATCC 6538
[3] = tested on: Escherichia coli K-12
[4] = tested on: Salmonella typhimurium KCTC 1926
[5] = tested on: Staphylococcus epidermidis KCTC 1917
[6] = tested on: Escherichia coli KCTC 1682
[7] = tested on: Staphylococcus aureus KCTC 1621
[8] = tested on: Bacillus subtilis KCTC 3068
[9] = tested on: Pseudomonas aeruginosa KCTC 1637
[10] = tested on: Staphylococcus aureus ATCC 25923
[11] = tested on: Escherichia coli ATCC 25922
[12] = tested on: Pseudomonas aeruginosa PAO1
[13] = tested on: Salmonella enterica serovar Typhimurium
[14] = tested on: Staphylococcus aureus ATCC 29213
[15] = tested on: Escherichia coli UB1005
[16] = tested on: Salmonella enterica subsp. enterica serovar Typhimurium C77-31
[17] = tested on: Staphylococcus epidermidis ATCC 12228
[18] = tested on: Klebsiella pneumoniae
[19] = tested on: Bacillus subtilis
[20] = tested on: Enterococcus faecalis ATCC 29212

Row | Compound | MIC [4] [µM] | MIC [5] [µM] | MIC [6] [µM] | MIC [7] [µM] | MIC [9] [µM] | MIC [10] [µM] | MIC [11] [µM] | MIC [14] [µM] | MIC [15] [µM] | MIC [16] [µM] | MIC [17] [µM] | other results
1 | CC[C@H](C)[C@H](NC(=O)[C@H](CCCCN)NC(=O)[C@H](CCCCN)NC(=O)[C@H](Cc1ccccc1)NC(=O)[C@H](C)NC(=O)[C@H](CCCCN)NC(=O)[C@H](Cc1c[nH]c2ccccc12)NC(=O)[C@@H](N)CCCCN)C(=O)N[C@@H](CCC(=O)O)C(=O)N[C@@H](CCCCN)C(=O)N[C@@H](CCSC)C(=O)N[C@H](C(=O)N[C@@H](CCCN=C(N)N)C(=O)N[C@@H](CC(N)=O)C(=O)N[C@H](C(=O)N[C@@H](CCCN=C(N)N)C(=O)N[C@@H](CC(N)=O)C(=O)N[C@@H](CCCCN)C(=O)N[C@H](C(=O)N[C@H](C(=O)N[C@@H](CCCCN)C(N)=O)C(C)C)[C@@H](C)CC)[C@@H](C)CC)[C@@H](C)CC [KWKAFKKIEKMIRNIRNKIVK] | – | – | – | – | – | – | – | – | – | – | – | MIC [1]: > 3 µM; MIC [2]: > 12 µM; MIC [3]: 3 µM (≈ 8.01 µg/mL)
2 | CC[C@H](C)[C@H](NC(=O)[C@H](CCCN=C(N)N)NC(=O)[C@H](Cc1c[nH]c2ccccc12)NC(=O)[C@H](CC(C)C)NC(=O)[C@@H](N)CCCN=C(N)N)C(=O)N[C@H](C(=O)N[C@H](C(=O)N[C@H](C(=O)N[C@@H](CCCN=C(N)N)C(=O)N[C@H](C(=O)N[C@@H](Cc1c[nH]c2ccccc12)C(=O)N[C@@H](CCCN=C(N)N)C(N)=O)C(C)C)[C@@H](C)CC)C(C)C)C(C)C [RLWRIVVIRVWR] | 15.1 (≈ 25 µg/mL) | 15.1 (≈ 25 µg/mL) | 30.3 (≈ 50 µg/mL) | 15.1 (≈ 25 µg/mL) | 15.1 (≈ 25 µg/mL) | – | – | – | – | – | – | MIC [8]: 30.3 µM (≈ 50 µg/mL)
3 | CC[C@H](C)[C@H](NC(=O)[C@H](CCCN=C(N)N)NC(=O)[C@H](Cc1c[nH]c2ccccc12)NC(=O)[C@H](CS)NC(=O)[C@@H](N)C(C)C)C(=O)N[C@@H](CCCN=C(N)N)C(=O)N[C@H](C(=O)N[C@@H](C)C(=O)N[C@H](C(=O)N[C@H](C(=O)N[C@@H](CCCN=C(N)N)C(=O)N[C@@H](C)C(=O)O)[C@@H](C)CC)C(C)C)C(C)C [VCWRIRVAVIRA] | – | – | – | – | – | 22.2 (≈ 32 µg/mL) | 44.4 (≈ 64 µg/mL) | – | – | – | – | MIC [12]: 44.4 µM (≈ 64 µg/mL); MIC [13]: ≥ 44.4 µM
4 | CC(C)C[C@H](NC(=O)[C@H](CCCN=C(N)N)NC(=O)[C@H](CCCCN)NC(=O)[C@H](Cc1c[nH]c2ccccc12)NC(=O)[C@@H](NC(=O)[C@H](CCCCN)NC(=O)[C@H](CCCCN)NC(=O)[C@H](Cc1c[nH]c2ccccc12)NC(=O)[C@H](CC(C)C)NC(=O)[C@H](CCCN=C(N)N)NC(=O)[C@@H](N)CCCN=C(N)N)[C@@H](C)O)C(=O)N[C@@H](Cc1c[nH]c2ccccc12)C(N)=O [RRLWKKTWKRLW] | – | – | – | – | – | 16 (≈ 28.1 µg/mL) | 4 (≈ 7.02 µg/mL) | 8 (≈ 14 µg/mL) | 4 (≈ 7.02 µg/mL) | 8 (≈ 14 µg/mL) | 8 (≈ 14 µg/mL) | –
5 | NCCCC[C@H](NC(=O)[C@H](CCCCN)NC(=O)[C@H](Cc1c[nH]c2ccccc12)NC(=O)[C@H](CCCCN)NC(=O)[C@@H]1CCCN1C(=O)[C@H](Cc1c[nH]c2ccccc12)NC(=O)[C@H](Cc1c[nH]c2ccccc12)NC(=O)[C@@H]1CCCN1C(=O)[C@H](CCCCN)NC(=O)[C@H](Cc1c[nH]c2ccccc12)NC(=O)[C@H](Cc1c[nH]c2ccccc12)NC(=O)[C@@H]1CCCN1C(=O)[C@H](CCCCN)NC(=O)[C@@H](N)CCCCN)C(=O)O [KKPWWKPWWPKWKK] | 2 (≈ 4.02 µg/mL) | 1 (≈ 2.01 µg/mL) | 2 (≈ 4.02 µg/mL) | 2 (≈ 4.02 µg/mL) | 4 (≈ 8.04 µg/mL) | – | – | – | – | – | – | MIC [8]: 1 µM (≈ 2.01 µg/mL)
6 | CC[C@H](C)[C@H](NC(=O)[C@H](C)NC(=O)[C@H](CCCCN)NC(=O)[C@H](C)NC(=O)[C@H](CCSC)NC(=O)CNC(=O)CNC(=O)[C@H](CC(C)C)NC(=O)[C@@H](NC(=O)[C@@H](NC(=O)[C@H](CC(N)=O)NC(=O)CNC(=O)[C@H](CCSC)NC(=O)[C@H](CCCN=C(N)N)NC(=O)[C@H](CCC(=O)O)NC(=O)[C@H](CC(=O)O)NC(=O)[C@@H](NC(=O)[C@H](CCCCN)NC(=O)[C@H](CCCCN)NC(=O)[C@H](CCC(N)=O)NC(=O)[C@@H](NC(=O)[C@H](CCCCN)NC(=O)[C@H](CCC(=O)O)NC(=O)[C@H](CCC(=O)O)NC(=O)[C@H](CC(N)=O)NC(=O)[C@@H](NC(=O)[C@H](Cc1c[nH]c2ccccc12)NC(=O)CN)[C@@H](C)CC)[C@@H](C)CC)[C@@H](C)CC)[C@@H](C)O)C(C)C)C(=O)N[C@H](C(=O)N[C@@H](Cc1cnc[nH]1)C(=O)N[C@@H](CCCCN)C(=O)N[C@@H](CCSC)C(=O)N[C@@H](C)C(=O)N[C@@H](CCCCN)C(=O)N[C@@H](CC(N)=O)C(=O)N[C@@H](CCC(=O)O)C(=O)N[C@@H](Cc1ccccc1)C(=O)N[C@@H](CCC(N)=O)C(=O)N[C@H]1CSSC[C@@H]2NC(=O)[C@H](Cc3ccc(O)cc3)NC(=O)CNC(=O)[C@H](CCCCN)NC(=O)[C@H](CCC(=O)O)NC(=O)CNC(=O)[C@H](CO)NC(=O)[C@H]([C@@H](C)O)NC(=O)[C@H](CCC(N)=O)NC(=O)[C@@H]3CSSC[C@@H](C(=O)NCC(=O)N[C@H](C(=O)N4CCC[C@H]4C(=O)N[C@@H](CC(C)C)C(=O)N[C@@H](CO)C(=O)N[C@@H](Cc4ccc(O)cc4)C(=O)O)[C@@H](C)O)NC(=O)[C@H](CCCCN)NC(=O)[C@H](CSSC[C@H](NC(=O)[C@H](CC(N)=O)NC(=O)CNC(=O)[C@H](CC(C)C)NC(=O)[C@H](CCSC)NC(=O)[C@H](CC(=O)O)NC(=O)[C@H](CCSC)NC(=O)[C@H](CC(N)=O)NC(=O)[C@H](C)NC(=O)[C@H](CCSC)NC1=O)C(=O)N[C@@H](CCC(=O)O)C(=O)N[C@@H](CCCCN)C(=O)N[C@@H](Cc1cnc[nH]1)C(=O)N3)NC(=O)[C@H](CCCCN)NC(=O)[C@H]([C@@H](C)O)NC(=O)CNC(=O)[C@H](Cc1cnc[nH]1)NC2=O)C(C)C [GWINEEKIQKKIDERMGNTVLGGMAKAIVHKMAKNEFQCMANMDMLGNCEKHCQTSGEKGYCHGTKCKCGTPLSY] | – | – | – | – | – | – | – | – | – | – | – | MIC [18]: 10 µM (≈ 83.5 µg/mL); MIC [19]: 1 µM (≈ 8.35 µg/mL)
7 | CC[C@H](C)[C@H](N)C(=O)N[C@@H](CC(C)C)C(=O)NCC(=O)N[C@@H](CCCCN)C(=O)N[C@H](C(=O)N[C@@H](CC(C)C)C(=O)N[C@@H](CCCCN)C(=O)NCC(=O)N[C@H](C(=O)N[C@@H](CCCCN)C(=O)N[C@@H](CCCCN)C(=O)N[C@@H](CC(C)C)C(=O)N[C@@H](Cc1ccccc1)C(N)=O)[C@@H](C)CC)[C@@H](C)CC [ILGKILKGIKKLF] | 1 (≈ 1.47 µg/mL) | 1 (≈ 1.47 µg/mL) | 2 (≈ 2.94 µg/mL) | 2 (≈ 2.94 µg/mL) | 2 (≈ 2.94 µg/mL) | – | – | – | – | – | – | –
8 | CC[C@H](C)[C@H](NC(=O)[C@H](CCCN=C(N)N)NC(=O)[C@H](CCC(N)=O)NC(=O)[C@@H](NC(=O)[C@@H](NC(=O)[C@H](CCCN=C(N)N)NC(=O)[C@H](CCCCN)NC(=O)[C@H](Cc1ccccc1)NC(=O)[C@H](CC(=O)O)NC(=O)CNC(=O)[C@H](CC(C)C)NC(=O)[C@@H](N)CC(C)C)[C@@H](C)CC)C(C)C)C(=O)N[C@@H](CCCCN)C(=O)N[C@@H](CC(=O)O)C(=O)N[C@@H](Cc1ccccc1)C(N)=O [LLGDFKRIVQRIKDF] | – | – | – | – | – | – | – | – | – | – | – | MIC [3]: ≥ 250 µM

The next lines start with results.

Row | MIC [4] [µM] | MIC [5] [µM] | MIC [6] [µM] | MIC [7] [µM] | MIC [9] [µM] | MIC [10] [µM] | MIC [11] [µM] | MIC [14] [µM] | MIC [15] [µM] | MIC [16] [µM] | MIC [17] [µM] | Compound | other results
9 | – | – | – | – | – | 64 (≈ 192 µg/mL) | 32 (≈ 96.2 µg/mL) | 32 (≈ 96.2 µg/mL) | 16 (≈ 48.1 µg/mL) | ≥ 128 | 32 (≈ 96.2 µg/mL) | CC[C@H](C)[C@H](NC(=O)[C@H](CCCCN)NC(=O)[C@H](CCCCN)NC(=O)[C@H](CC(C)C)NC(=O)[C@@H](NC(=O)[C@H](CCCCN)NC(=O)CNC(=O)[C@@H](NC(=O)[C@H](CCCCN)NC(=O)[C@H](CCCCN)NC(=O)[C@H](CC(C)C)NC(=O)[C@H](CCCN=C(N)N)NC(=O)[C@H](CCCCN)NC(=O)[C@H](CCCN=C(N)N)NC(=O)[C@@H](NC(=O)[C@H](CCCCN)NC(=O)[C@H](CCCCN)NC(=O)[C@H](CCCN=C(N)N)NC(=O)[C@H](CC(C)C)NC(=O)[C@H](CCCN=C(N)N)NC(=O)[C@H](CCCN=C(N)N)NC(=O)[C@H](Cc1ccccc1)NC(=O)[C@H](CCCN=C(N)N)NC(=O)CN)[C@@H](C)O)[C@@H](C)CC)C(C)C)C(N)=O [GRFRRLRKKTRKRLKKIGKVLKKI] | –
10 | – | – | – | – | – | – | > 128 | > 128 | ≥ 128 | ≥ 128 | > 128 | CC[C@H](C)[C@H](NC(=O)[C@H](CCCCN)NC(=O)[C@H](CCCCN)NC(=O)[C@H](CC(C)C)NC(=O)[C@H](CCCN=C(N)N)NC(=O)[C@H](CC(=O)O)NC(=O)[C@H](CCCN=C(N)N)NC(=O)[C@@H](NC(=O)[C@H](CCCCN)NC(=O)[C@H](CC(=O)O)NC(=O)[C@H](CCCN=C(N)N)NC(=O)[C@H](CC(C)C)NC(=O)[C@H](CCCN=C(N)N)NC(=O)[C@H](CCCN=C(N)N)NC(=O)[C@H](Cc1ccccc1)NC(=O)[C@@H](N)CCCN=C(N)N)[C@@H](C)O)C(N)=O [RFRRLRDKTRDRLKKI] | MIC [20]: > 128 µM
